Test results reported in patent US20250108036A1, “COMPOSITIONS FOR REMOVING SENESCENT CELLS AND USES THEREOF” (LIFECEUTIX CO., LTD., priority 2021, published 2025).

Legend:
Format in all cases: cell-based, human
[1] = tested on: foreskin cells in which senescence was induced by doxorubicin; experiment: CellTiter-Glo cell viability of doxorubicin-induced senescent foreskin cells (Examples 1-2, 10, 11, 13; Tables 4, 63, 65); conditions: Homo sapiens, 72 h, doxorubicin-induced senescent foreskin cells, CellTiter-Glo, 0 μM = 100, read-out: Survival (%); for viability at 1.1 µM: 1.1 μM test compound; for viability at […]: […] test compound; for viability at 10 µM: 10 μM test compound; for viability at 30 µM: 30 μM test compound; for viability at 90 µM: 90 μM test compound
Procedure: After 3 days, cell viability was measured using CellTiter-Glo Luminescent Cell Viability Assay (Promega) or light microscopy.

A549 = experiment: CellTiter-Glo cell viability of senescent A549 cancer cells (Example 12, Table 67); conditions: Homo sapiens, A549, doxorubicin-induced senescent A549 cancer cells, CellTiter-Glo, read-out: Survival (%); for viability at 1.1 µM: 1.1 μM test compound; for viability at 10 µM: 10 μM test compound; for viability at 30 µM: 30 μM test compound; for viability at 90 µM: 90 μM test compound
HMGN1 [2] = experiment: HMGN1 ELISA in culture medium of A549 cancer cells (Example 12, Table 66); conditions: Homo sapiens, A549, doxorubicin-induced senescent A549 cells, ELISA, DMSO = 100, read-out: HMGN1 (amount of HMGN1 secreted in the cell culture); for activity at 30 µM: test compound 30 μM; for activity at 90 µM: test compound 90 μM
HMGN1 [3] = experiment: HMGN1 ELISA in culture medium of foreskin cells (Examples 10, 11; Tables 62, 63, 64); conditions: Homo sapiens, doxorubicin-treated foreskin cells, DMSO = 100; for activity at 30 µM: 30 μM test compound, read-out: HMGN1; for activity at 90 µM: 90 μM test compound

SMILES	viability at 1.1 µM [1] [%]	viability at […] [1] [%]	viability at 1.1 µM (A549) [%]	viability at 10 µM (A549) [%]	activity at 30 µM (HMGN1 [2]) [%]	activity at 30 µM (HMGN1 [3]) [%]	viability at 10 µM [1] [%]	viability at 30 µM [1] [%]	viability at 90 µM [1] [%]	viability at 30 µM (A549) [%]	viability at 90 µM (A549) [%]	activity at 90 µM (HMGN1 [2]) [%]	activity at 90 µM (HMGN1 [3]) [%]
CCNC(=O)CC[C@]12CCC(C)(C)C[C@H]1[C@H]1C(=O)C=C3[C@@]4(C)C=C(C#N)C(=O)C(C)(C)[C@@H]4CC[C@@]3(C)[C@]1(C)CC2 [LX-2402]	45.2	5.1	99.5	5.4	286	287	–	–	–	–	–	–	–
CNC(=O)CC[C@]12CCC(C)(C)C[C@H]1[C@H]1C(=O)C=C3[C@@]4(C)C=C(C#N)C(=O)C(C)(C)[C@@H]4CC[C@@]3(C)[C@]1(C)CC2 [LX-2403]	38.1	15.2	100	3.2	267	319	–	–	–	–	–	–	–
C[C@@H]1C(=O)C(C#N)=C[C@]2(c3ccccc3)c3c(c(-c4cccnc4)nn3C)CC[C@@H]12 [LX-2407, (5aS,6S,9aR)-1,6-dimethyl-7-oxo-9a-phenyl-3-(pyridin-3-yl)-4,5,5a,6,7,9a-hexahydro-1H-benzo[g]indazole-8-carbonitrile]	15.4	5.9	89.6	41.8	316	308	–	–	–	–	–	–	–
C[C@@H]1C(=O)C(C#N)=C[C@]2(C)c3nc(CCO)n(-c4ccccc4)c3CC[C@@H]12 [LX-2409]	37.1	12.8	88.5	26.4	281	239	–	–	–	–	–	–	–
CC(O)[C@]1(C)C(=O)C(C#N)=C[C@]2(C)C3=CC(=O)[C@]45OC(=O)[C@@]6(CCC(C)(C)C[C@H]64)CC[C@@]5(C)[C@]3(C)CC[C@@H]12 (some centres unmarked) [LX-2501]	11.1	–	14.4	–	333	309	–	–	–	–	–	–	–
CCC[C@H]1C(=O)C(C#N)=C[C@@]2(C)c3nc(-c4ccnc5ccccc45)nc(-c4ccccc4F)c3CC[C@H]12 [LX-2502]	49.6	13.4	97.2	5.9	297	258	–	–	–	–	–	–	–
CCC[C@H]1C(=O)C(C#N)C[C@@]2(C)c3nc(-c4cccc5ncccc45)nc(-c4ccccc4F)c3CC[C@H]12 (some centres unmarked) [LX-2503]	82.4	25.8	105	31.2	285	297	–	–	–	–	–	–	–
C[C@H]1C(=O)C(C#N)=C[C@@]2(C)c3c(c(-c4ccccc4)nn3-c3ccc(-c4cccc(CO)c4)cc3)CC[C@H]12 [LX-2505]	78.6	36.9	100	18.6	308	248	–	–	–	–	–	–	–
Cc1cc(-c2ccc(-n3nc(-c4ccccc4F)c4c3[C@]3(C)C=C(C#N)C(=O)[C@H](C)[C@H]3CC4)cc2)cnn1 [LX-2506]	91	11.8	98.3	26.4	267	279	–	–	–	–	–	–	–
C[C@@H]1C(=O)C(C#N)=C[C@]2(C)C3=CC(=O)[C@@H]4[C@@H]5CC(C)(C)CC[C@]5(c5nnc(CF)o5)CC[C@@]4(C)[C@]3(C)CC[C@@H]12 [LX-2507]	46.6	38.6	97.5	35.7	248	267	–	–	–	–	–	–	–
CC1(C)CC[C@]2(c3nc(CO)no3)CC[C@]3(C)[C@H](C(=O)C=C4[C@@]5(C)C=C(C#N)C(=O)C(C)(C)[C@@H]5CC[C@]43C)[C@@H]2C1 [LX-2508]	75.6	28.2	93.5	43.9	283	313	–	–	–	–	–	–	–
C=CC(=O)NC[C@]12CCC(C)(C)C[C@H]1[C@H]1C(=O)C=C3[C@@]4(C)C=C(C#N)C(=O)C(C)(C)[C@@H]4CC[C@@]3(C)[C@]1(C)CC2 [LX-2509]	81.1	13.5	106	21.8	305	301	–	–	–	–	–	–	–
CCC(=O)NC[C@]12CCC(C)(C)C[C@H]1[C@H]1C(=O)C=C3[C@@]4(C)C=C(C#N)C(=O)C(C)(C)[C@@H]4CC[C@@]3(C)[C@]1(C)CC2 [LX-2510]	62.9	11.8	95.7	2.9	317	288	–	–	–	–	–	–	–
C[C@@H]1[C@H]2[C@H]3C(=O)C=C4[C@@]5(C)C=C(C#N)C(=O)C(C)(C)[C@@H]5CC[C@@]4(C)[C@]3(C)CC[C@@]2(c2nc(CCO)no2)CC[C@H]1C [LX-2511]	43.5	8.4	97.2	2.1	296	306	–	–	–	–	–	–	–
C[C@@H]1[C@H]2[C@H]3C(=O)C=C4[C@@]5(C)C=C(C#N)C(=O)C(C)(C)[C@@H]5CC[C@@]4(C)[C@]3(C)CC[C@@]2(CO)CC[C@H]1C [LX-2512]	38.2	3.2	88.5	11.7	274	276	–	–	–	–	–	–	–
COC(=O)[C@@]1(C)CC[C@]2(C)CC[C@]3(C)[C@H](C(=O)C=C4[C@@]5(C)C=C(C#N)C(=O)C(C)(C)C5CC[C@]43C)[C@@H]2C1 (some centres unmarked) [LX-2513, Soloxolone methyl]	49.6	2.6	105	6.9	311	325	–	–	–	–	–	–	–
CC1(C)C(=O)C(C#N)=C[C@]2(C)C3=CC(=O)[C@@H]4[C@@H]5C[C@@](C)(C(=O)NCCc6c[nH]c7ccccc67)CC[C@]5(C)CC[C@@]4(C)[C@]3(C)CCC12 (some centres unmarked) [LX-2517, Soloxolone tryptamide]	0.6	–	8.4	–	318	298	–	–	–	–	–	–	–
C=C(CC)C(=O)c1ccc(OCC(=O)O)c(Cl)c1Cl [LX-2603, Ethacrynic acid, reference compound]	100	103	98.7	89.1	–	–	95.8	52.6	37.8	41.5	1.8	245	218
CCCCC/C=C\C/C=C\C/C=C\C/C=C\CCCC(=O)O [LX-2701, Arachidonic acid]	103	97.3	102	97.1	–	–	76.8	48.3	29.4	93.8	42.9	179	194
CC/C=C\C/C=C\C/C=C\C/C=C\C/C=C\C/C=C\CCC(=O)O [LX-2702, Docosahexaenoic acid]	104	99.1	96.7	94.4	–	–	87.4	49.6	22.9	55.1	9.5	237	206
